Like-named read-outs stand apart in the source and are kept apart here.
Experiments:
Format in all cases: in vivo
[1] = test system: Blumeria graminis f. sp. hordei; Synonym: Erysiphe graminis f. sp. hordei; assay: Barley powdery mildew (ERYSGH) disease control; settings: 24 h, 1 Day Protectant, high volume, read-out: Disease Control ERYSGH 1 DP
Description: (§1) Technical grades of materials were dissolved in acetone, which were then mixed with nine volumes of water containing 110 ppm Triton X-100. The fungicide solutions were applied onto wheat seedlings using an automated booth sprayer to run-off. All sprayed plants were allowed to air dry prior to further handling. All fungicides were evaluated using the aforementioned method for their activity vs. all target diseases. Wheat leaf blotch and brown rust activity were also evaluated using track spray applications, in which case the fungicides were formulated as EC formulations, containing 0.1% Trycol 5941 in the spray solutions. Barley seedlings (variety Harrington) were propagated in soil-less Metro mix, with each pot having 8 to 12 plants, and used in the test when first leaf was fully emerged. Test plants were inoculated by dusting with infected stock plants 24 hr after fungicide treatments. After inoculation the plants were kept in a greenhouse set at 20° C. for disease to develop. Fungicide formulation, application and disease assessment on the sprayed leaves followed the procedures as described in the Example A.

Rhyncosporium secalis = assay: Barley scald (RHYNSE) disease control; settings: 24 h, High volume application, 1 Day Protectant, read-out: RHYNSE 1 DP disease control
Description: as §1, with “inoculated by an aqueous spore suspension of Rhyncosporium secalis 24 hr” for “inoculated by dusting with infected stock plants 24 hr”, “kept in a dew room at 20° C. with 100% relative humidity for 48 hr. The plants were then transferred to a greenhouse” for “kept in a greenhouse”

Phakopsora pachyrhizi = assay: Asian soybean rust (PHAKPA) disease control; settings: topical, high volume
Method in brief: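 Compounds in acetone diluted with nine volumes water containing 0.011% Tween 20, sprayed to run-off on two-week-old Williams 82 soybean seedlings, inoculated 3 days before or 1 day after treatment. Plants held 24 h in dark dew room at 22 °C, 100% RH, then at 23 °C; disease severity scored on sprayed leaves.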

Alternaria solani = assay: Tomato early blight (ALTESO) disease control; settings: 24 h, 1 Day Protectant, high volume, read-out: Disease Control ALTESO 1 DP
Description: Technical grades of materials were dissolved in acetone, which were then mixed with nine volumes of water containing 110 ppm Triton X-100. The fungicide solutions were applied onto wheat seedlings using an automated booth sprayer to run-off. All sprayed plants were allowed to air dry prior to further handling. All fungicides were evaluated using the aforementioned method for their activity vs. all target diseases. Wheat leaf blotch and brown rust activity were also evaluated using track spray applications, in which case the fungicides were formulated as EC formulations, containing 0.1% Trycol 5941 in the spray solutions. Tomato plants (variety Outdoor girl) were propagated in soil-less Metro mix, with each pot having one plant, and used when 12 to 14 days old. Test plants were inoculated with an aqueous spore suspension of Alternaria solani 24 hr after fungicide treatments. After inoculation the plants were kept in 100% relative humidity (one day in a dark dew chamber followed by two to three days in a lighted dew chamber at 20° C.) to permit spores to germinate and infect the leaf. The plants were then transferred to a growth room at 22° C. for disease to develop. Fungicide formulation, application and disease assessment on the sprayed leaves followed the procedures as described in the Example A.

[2] = test system: Puccinia triticina; Synonym: Puccinia recondite f. sp. tritici; assay: Wheat brown rust (PUCCRT) disease control on wheat seedlings; settings: Puccinia triticina, High volume application, 100 ppm
Method in brief: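 Acetone solutions diluted in nine volumes of water with 110 ppm Triton X-100 sprayed to run-off on first-leaf Yuma wheat seedlings (track spray: EC with 0.1% Trycol 5941). Puccinia triticina spores inoculated before or after treatment; overnight dark dew at 22° C., 100% RH, then greenhouse at 24° C. for disease development.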

[3] = test system: Mycosphaerella graminicola; Anamorph: Septoria tritici; assay: Leaf blotch of wheat (SEPTTR) disease control on wheat seedlings; settings: Zymoseptoria tritici, High volume application, 100 ppm
Method in brief: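 Wheat seedlings (Yuma, first leaf emerged) sprayed to run-off with compound in acetone/water with 110 ppm Triton X-100, or track-sprayed as EC with 0.1% Trycol 5941. Septoria tritici spores inoculated before or after treatment. Dew chambers, then 20 °C greenhouse. Percent disease control derived from severity (0–100%) relative to untreated plants.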

[4] = 24 h, 1 Day Protectant, read-out: Disease Control PHAKPA 1DP
[5] = 72 h, 3 Day Curative, read-out: Disease Control PHAKPA 3DC
[6] = 24 h, 1 Day Protectant, read-out: PUCCRT 1DP disease control
[7] = 72 h, 3 Day Curative, read-out: PUCCRT 3DC disease control
[8] = 24 h, 1 Day Protectant, read-out: SEPTTR 1DP disease control
[9] = 72 h, 3 Day Curative, read-out: SEPTTR 3DC disease control

| Compound | pest or weed control at 100 ppm [1] [%] | pest or weed control at 100 ppm (Rhyncosporium secalis) [%] | pest or weed control at 25 ppm (Phakopsora pachyrhizi; [4]) [%] | pest or weed control at 25 ppm (Phakopsora pachyrhizi; [5]) [%] | pest or weed control at 100 ppm (Alternaria solani) [%] | pest or weed control at 100 ppm [2, 6] [%] | pest or weed control at 100 ppm [2, 7] [%] | pest or weed control at 100 ppm [3, 8] [%] | pest or weed control at 100 ppm [3, 9] [%] |
| --- | --- | --- | --- | --- | --- | --- | --- | --- | --- |
| COc1ccnc(C(=O)N[C@H]2CCC[C@H](OCC(C)C)[C@@H](OC3CCCC3)[C@H](C)OC2=O)c1OCOC(C)=O [F39] | 80 to 100 | 80 to 100 | 80 to 100 | 80 to 100 | 80 to 100 | 80 to 100 | 80 to 100 | 80 to 100 | 80 to 100 |
| COc1ccnc(C(=O)N[C@H]2CCC[C@H](Oc3ccccc3)[C@@H](OCCCc3ccccc3)[C@H](C)OC2=O)c1OCOC(C)=O [F130] | 0 to 80 | 80 to 100 | 80 to 100 | 0 to 80 | 80 to 100 | 80 to 100 | 80 to 100 | 80 to 100 | 80 to 100 |
| CCCO[C@H]1CCC[C@H](NC(=O)c2nccc(OC)c2OCOC(C)=O)C(=O)O[C@@H](C)[C@@H]1Oc1ccccc1 [F138] | 0 to 80 | 80 to 100 | 80 to 100 | 80 to 100 | 80 to 100 | 80 to 100 | 80 to 100 | 80 to 100 | 80 to 100 |
| CCCO[C@H]1CCC[C@H](NC(=O)c2nccc(OC)c2OCOC(=O)C(C)C)C(=O)O[C@@H](C)[C@@H]1Oc1ccccc1 [F139] | < 0 | 80 to 100 | 80 to 100 | 80 to 100 | 80 to 100 | 80 to 100 | 80 to 100 | 80 to 100 | 80 to 100 |
| CCCO[C@H]1CCC[C@H](NC(=O)c2nccc(OC)c2OC(=O)CCOC)C(=O)O[C@@H](C)[C@@H]1Oc1ccccc1 [F140] | 0 to 80 | 80 to 100 | 80 to 100 | 80 to 100 | 80 to 100 | 80 to 100 | 80 to 100 | 80 to 100 | 80 to 100 |
| CCCO[C@H]1CCC[C@H](NC(=O)c2nccc(OC)c2OC(C)=O)C(=O)O[C@@H](C)[C@@H]1Oc1ccccc1 [F141] | 80 to 100 | 80 to 100 | 80 to 100 | 80 to 100 | 80 to 100 | 80 to 100 | 80 to 100 | 80 to 100 | 80 to 100 |
| CCCO[C@H]1CCC[C@H](NC(=O)c2nccc(OC)c2OCOC(=O)C(C)C)C(=O)O[C@@H](C)[C@@H]1OC1CCCC1 [F154] | 80 to 100 | 80 to 100 | 80 to 100 | 80 to 100 | 80 to 100 | 80 to 100 | 80 to 100 | 80 to 100 | 80 to 100 |
| CCCO[C@H]1CCC[C@H](NC(=O)c2nccc(OC)c2OCOC(C)=O)C(=O)O[C@@H](C)[C@@H]1OC1CCCC1 [F155] | 80 to 100 | 0 to 80 | 80 to 100 | 80 to 100 | 80 to 100 | 80 to 100 | 80 to 100 | 80 to 100 | 80 to 100 |
| COc1ccnc(C(=O)N[C@H]2CCC[C@H](OC3CCCC3)[C@@H](OCCCc3ccccc3)[C@H](C)OC2=O)c1OCOC(C)=O [F165] | 0 to 80 | 80 to 100 | 80 to 100 | 0 to 80 | 80 to 100 | 80 to 100 | 80 to 100 | 80 to 100 | 80 to 100 |
| CCCCCO[C@H]1[C@H](C)OC(=O)[C@@H](NC(=O)c2nccc(OC)c2OCOC(C)=O)CCC[C@@H]1OC1CCCC1 [F166] | 80 to 100 | 80 to 100 | 80 to 100 | 80 to 100 | 80 to 100 | 80 to 100 | 80 to 100 | 80 to 100 | 80 to 100 |
| COc1ccc(O[C@H]2CCC[C@H](NC(=O)c3nccc(OC)c3OCOC(C)=O)C(=O)O[C@@H](C)[C@@H]2OC2CCCC2)cc1 [F170] | 0 to 80 | 80 to 100 | 80 to 100 | 0 to 80 | 80 to 100 | 80 to 100 | 80 to 100 | 80 to 100 | 80 to 100 |
| COc1ccnc(C(=O)N[C@H]2CCC[C@H](OCCCC(F)(F)F)[C@@H](OC3CCCC3)[C@H](C)OC2=O)c1OCOC(C)=O [F172] | 0 to 80 | 80 to 100 | 80 to 100 | 80 to 100 | 80 to 100 | 80 to 100 | 80 to 100 | 80 to 100 | 80 to 100 |

From US9681664B2, “Macrocyclic picolinamides as fungicides” (Dow Agrosciences LLC, priority 2012, dated 2017)
